We go through 16 compounds from patent publication US8058475B2, “Substituted cyclohexylmethyl compounds” (Gruenenthal GmbH, priority 2005, dated 2011).

Counter-ions that a name gives are not always drawn. Like-named read-outs stand apart in the source and are kept apart here.

The target of data set [1] is T1, Serotonin (5HT) reuptake (Rattus norvegicus, UniProt P31652).
T1 construct: synaptosomes are freshly isolated from areas of rat brain; from tissue; host or cells: rat brain synaptosomes (P2 fraction)
T1 sequence (P31652 whole entry): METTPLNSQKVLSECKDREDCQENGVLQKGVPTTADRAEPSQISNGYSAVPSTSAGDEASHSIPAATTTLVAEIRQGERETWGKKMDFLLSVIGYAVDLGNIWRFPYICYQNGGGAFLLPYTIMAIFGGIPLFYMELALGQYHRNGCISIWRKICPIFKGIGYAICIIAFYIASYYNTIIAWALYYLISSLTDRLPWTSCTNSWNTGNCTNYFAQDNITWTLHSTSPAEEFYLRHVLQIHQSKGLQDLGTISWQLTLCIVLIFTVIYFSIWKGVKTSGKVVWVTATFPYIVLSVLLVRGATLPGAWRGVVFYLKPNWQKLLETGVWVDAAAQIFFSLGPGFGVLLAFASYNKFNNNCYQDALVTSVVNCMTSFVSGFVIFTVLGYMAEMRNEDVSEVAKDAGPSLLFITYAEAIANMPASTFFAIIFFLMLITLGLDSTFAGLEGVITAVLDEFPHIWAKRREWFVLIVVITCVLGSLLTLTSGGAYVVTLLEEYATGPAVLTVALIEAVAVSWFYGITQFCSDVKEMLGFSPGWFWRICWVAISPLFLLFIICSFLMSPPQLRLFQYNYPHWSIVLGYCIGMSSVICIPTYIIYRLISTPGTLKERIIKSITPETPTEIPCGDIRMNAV
The experiment in a line: Serotonin (5HT) reuptake inhibition in rat brain synaptosomes (P2 fraction). It is filed as biochemical. The following applies: for inhibition at 10 µM: read-out: Serotonin reuptake, % inhibition [10 μM]. In short, it runs like this:
(§1)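 Freshly isolated rat brain synaptosomes (P2 fraction, Gray–Whittaker method) used for uptake; for NA uptake the particles came from hypothalamus of male rats.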

Data set [2] has as its target T2, Noradrenaline (NA) reuptake (Rattus norvegicus, UniProt Q63380).
T2 construct: synaptosomes are freshly isolated from areas of rat brain; from tissue; host or cells: rat hypothalamus synaptosomes (P2 fraction)
The data set can be described thus: Noradrenaline (NA) reuptake inhibition in rat brain synaptosomes (hypothalamus, P2 fraction). The data set is classed as biochemical. The method in brief:
as §1

Data set [3] concerns mouse. The data set can be described thus: In vivo studies of analgesia: tail-flick test in the mouse. As to conditions: iv; for % maximum possible antinociceptive effect at 10 mg/kg: dose 10 mg/kg (i.v.); for % maximum possible antinociceptive effect at 21.5 mg/kg: dose 21.5 mg/kg (i.v.). An excerpt: In vivo Studies of Analgesia: Tail-flick Test in the Mouse
The mice were each placed individually into a test cage and the base of the tail was exposed to the focused heat ray of an electric lamp (tail-flick type 50/08/1.bc, Labtec, Dr. Hess). The intensity of the lamp was adjusted so that the time from switching on of the lamp to the sudden twitching away of the tail (latency of pain) in untreated mice was from 3 to 5 seconds. Before administration of the solutions comprising the compound according to the invention, or of the particular comparison solutions, the mice were pre-tested twice in the course of five minutes and the mean of these measurements was calculated as the pre-test mean.
The solutions of the compound of the general formula I according to the invention and the comparison solutions were then administered intravenously.
Pain measurement was carried out in each case 10, 20, 40 and 60 minutes following the intravenous administration. The analgesic activity was determined as the increase in the latency of pain (% of the maximum possible antinociceptive effect) according to the following formula: [(T1−T0)/(T2−T0)]×100 where time T0 is the latency before administration, time T1 is the latency after administration of the active ingredient combination and time T2 is the maximum exposure time (12 seconds).
The in-depth study of analgesic activity was carried out in the tail-flick test in the mouse, as described above.

For data set [4], the target named is human μ-opiate receptor (Homo sapiens, UniProt P35372). The experiment in a line: Affinity for the human μ-opiate receptor ([3H]-naloxone displacement, SPA, CHO-K1 membrane preparation). It is filed as binding. The following applies: for inhibition at 1 µM: read-out: μ-Opioid receptor, % inhibition [1 μM]; for Ki: read-out: μ-Opioid receptor, Ki.
Sequence of human μ-opiate receptor (P35372 whole entry): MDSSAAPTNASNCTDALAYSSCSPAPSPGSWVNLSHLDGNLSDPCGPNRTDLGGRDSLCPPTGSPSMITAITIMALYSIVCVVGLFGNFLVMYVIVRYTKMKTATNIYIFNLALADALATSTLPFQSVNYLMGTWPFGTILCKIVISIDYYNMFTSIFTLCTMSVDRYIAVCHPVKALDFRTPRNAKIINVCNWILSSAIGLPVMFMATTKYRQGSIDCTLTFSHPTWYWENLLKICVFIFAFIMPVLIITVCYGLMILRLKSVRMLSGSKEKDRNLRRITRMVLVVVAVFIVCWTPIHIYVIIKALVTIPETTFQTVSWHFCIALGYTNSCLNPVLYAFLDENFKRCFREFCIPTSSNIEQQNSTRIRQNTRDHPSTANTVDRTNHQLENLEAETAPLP
Setting [5] is: read-out: NA reuptake, % inhibition [10 μM].
Setting [6] is: 1 μM test substance, inhibition of specific [3H]-naloxone binding.
[7] abbreviates: read-out: Na reuptake, % inhibition [10 μM].

T2 sequence (Q63380 1-617): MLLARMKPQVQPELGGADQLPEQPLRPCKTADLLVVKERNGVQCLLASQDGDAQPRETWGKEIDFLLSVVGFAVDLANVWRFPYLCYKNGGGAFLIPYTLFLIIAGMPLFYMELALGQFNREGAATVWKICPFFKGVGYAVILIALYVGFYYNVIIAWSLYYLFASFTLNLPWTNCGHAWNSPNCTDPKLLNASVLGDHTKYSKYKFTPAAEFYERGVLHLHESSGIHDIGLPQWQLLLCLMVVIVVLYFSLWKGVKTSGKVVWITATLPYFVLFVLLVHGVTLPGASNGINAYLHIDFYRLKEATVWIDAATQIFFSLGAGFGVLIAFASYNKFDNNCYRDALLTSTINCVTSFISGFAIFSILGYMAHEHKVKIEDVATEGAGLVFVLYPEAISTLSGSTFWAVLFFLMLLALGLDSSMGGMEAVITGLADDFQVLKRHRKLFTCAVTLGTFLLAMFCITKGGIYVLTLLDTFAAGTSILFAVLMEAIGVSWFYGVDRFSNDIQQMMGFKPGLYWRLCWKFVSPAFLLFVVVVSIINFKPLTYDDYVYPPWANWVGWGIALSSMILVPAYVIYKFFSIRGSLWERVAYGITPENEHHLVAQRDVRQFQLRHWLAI

For the compound `CN(C)C(c1ccccc1)C1CCC(=NO)CC1` (centres unmarked), the melting point is 110 to 115 °C.
Compound `CN(C)C(c1cccs1)C1CCC(=NO)CC1` (centres unmarked) registered a melting point of 118 to 121 °C.
As to `CN(C)C(c1ccccc1)[C@H]1CC[C@H](CCc2ccccc2)CC1` (relative stereo) [compound 146, trans-N,N-dimethyl(4-phenethylcyclohexyl)(phenyl)methanamine hydrochloride], the inhibitory constant (Ki) in data set [1] amounted to 150 nM; in data set [2] it was 600 nM. Besides, the results for the inhibition at 10 µM in data set [1] and in data set [2] (setting [5]) were 92% and 94%, respectively. For the same compound, the % maximum possible antinociceptive effect at 10 mg/kg in data set [3] (read-out: Activity % MPE) amounted to 21%. Moreover, the inhibition at 1 µM in data set [4] (setting [6]) was found to be 97%.
As to `CN(C)C(c1ccccc1)C1CCC(NC(=O)Nc2ccccc2)CC1.Cl` (centres unmarked) [compound 78, 1-(4-((dimethylamino)(phenyl)methyl)cyclohexyl)-3-phenylurea hydrochloride], the inhibition constant Ki in data set [1] came out at 160 nM; in data set [2], 290 nM; in data set [4] it was 54 nM. For the same compound, the inhibition at 10 µM in data set [1] came to 87%; in data set [2] (setting [5]), 98%. In data set [3] (head prints (4.64-21.5)), the ED50 was 8.94 mg/kg. For the same compound, the inhibition at 1 µM in data set [4] (setting [6]) was 91%.
Take `CN(C)C(c1ccccc1)C1CCC(NC(=O)NCc2ccccc2)CC1` (centres unmarked) [compound 79, 1-benzyl-3-(4-((dimethylamino)(phenyl)methyl)cyclohexyl)urea]: the Ki in data set [1] was 91 nM; in data set [2], 120 nM; in data set [4], 8.3 nM. Further, the figures for the inhibition at 10 µM in data set [1] and in data set [2] (setting [5]) were 97% and 96%, respectively. In data set [3] (read-out: Activity % MPE), the % maximum possible antinociceptive effect at 10 mg/kg was found to be 76%. In addition, in data set [4] (setting [6]), the inhibition at 1 µM was 103%.
`CN(C)C(c1ccccc1)C1CCC(NC(=O)NC2CCCCC2)CC1` (centres unmarked) [compound 80, 1-cyclohexyl-3-(4-((dimethylamino)(phenyl)methyl)cyclohexyl)urea]: the inhibitory constant (Ki) in data set [1] was found to be 250 nM; in data set [2], 490 nM; in data set [4], 20 nM. Further, the inhibition at 10 µM in data set [1] and in data set [2] (setting [5]) was 97% each time. In addition, the % maximum possible antinociceptive effect at 10 mg/kg in data set [3] (read-out: Activity % MPE) came to 59%. Moreover, in data set [4] (setting [6]), the inhibition at 1 µM came to 95%.
Turning to `CN(C)C(c1ccccc1)C1CCC(NCc2ccccc2)CC1` (centres unmarked) [compound 86, N-benzyl-4-((dimethylamino)(phenyl)methyl)cyclohexanamine hydrochloride], the inhibition at 10 µM turned out to be 88% in data set [1] and 95% in data set [2] (setting [5]). In addition, the % maximum possible antinociceptive effect at 21.5 mg/kg in data set [3] (read-out: Activity % MPE) came to 100%. For the same compound, the inhibition at 1 µM in data set [4] (setting [6]) is 98%. For the same compound, in data set [4], the Ki amounted to 3.8 nM.
For `CN(C)C(c1ccccc1)C1CCC(NCCCCc2ccccc2)CC1` (centres unmarked) [compound 87, 4-((dimethylamino)(phenyl)methyl)-N-(4-phenylbutyl)cyclohexanamine hydrochloride], the inhibition at 10 µM stood at 95% in data set [1] and 106% in data set [2] (setting [5]). Also, the % maximum possible antinociceptive effect at 10 mg/kg in data set [3] (read-out: Activity % MPE) stood at 39%. Further, in data set [4] (setting [6]), the inhibition at 1 µM came to 85%. In addition, the Ki in data set [4] was found to be 3.7 nM.
Consider `CC(Cc1c[nH]c2ccccc12)NC1CCC(C(c2ccccc2)N(C)C)CC1` (centres unmarked) [compound 88, N-(1-(1H-indol-3-yl)propan-2-yl)-4-((dimethylamino)(phenyl)methyl)-cyclohexanamine hydrochloride], for which the inhibition at 10 µM in data set [1] turned out to be 88%; in data set [2] (setting [5]) it was 84%. Moreover, the % maximum possible antinociceptive effect at 21.5 mg/kg in data set [3] (read-out: Activity % MPE) was 90%. Further, the inhibition at 1 µM in data set [4] (setting [6]) amounted to 99%. For the same compound, in data set [4], the Ki was 2.4 nM.
The matching figures for `CN(C)C(c1ccccc1)C1CCC(NCc2ccc(F)cc2)CC1` (centres unmarked) [compound 91, 4-((dimethylamino)(phenyl)methyl)-N-(4-fluorobenzyl)cyclohexanamine hydrochloride]: 76%, 93%, 90%, 90% and 8.1 nM.
For the compound `CC(=O)N(CCCc1ccccc1)C1CCC(C(c2ccccc2)N(C)C)CC1` (centres unmarked) [compound 95, N-(4-((dimethylamino)(phenyl)methyl)cyclohexyl)-N-(3-phenylpropyl)acetamide hydrochloride], the inhibition at 10 µM was determined as 66% in data set [1] and 80% in data set [2] (setting [7]). In addition, the % maximum possible antinociceptive effect at 1 mg/kg in data set [3] (dose 1 mg/kg (i.v.), read-out: Activity % MPE) is 100%. Further, the inhibition at 1 µM in data set [4] was 95%. In addition, the Ki in data set [4] amounted to 2.5 nM.
As for `CC(=O)N(CCCCc1ccccc1)C1CCC(C(c2ccccc2)N(C)C)CC1` (centres unmarked) [compound 98, N-(4-((dimethylamino)(phenyl)methyl)cyclohexyl)-N-(4-phenylbutyl)-acetamide hydrochloride], the inhibitory constant (Ki) in data set [1] was found to be 630 nM; in data set [2] it was 700 nM. The inhibition at 10 µM in data set [1] was 74%; in data set [2] (setting [7]), 95%. The % maximum possible antinociceptive effect at 10 mg/kg in data set [3] (read-out: Activity % MPE) is 100%. The inhibition at 1 µM in data set [4] turned out to be 104%.
For `CCCC(=O)N(Cc1ccccc1)C1CCC(C(c2ccccc2)N(C)C)CC1` (centres unmarked) [compound 102, N-benzyl-N-(4-((dimethylamino)(phenyl)methyl)cyclohexyl)butyramide hydrochloride], the Ki in data set [1] is 450 nM; in data set [2], 130 nM; in data set [4], 1.5 nM. Also, the inhibition at 10 µM amounted to 85% in data set [1] and 92% in data set [2] (setting [7]). Also, in data set [3] (read-out: Activity % MPE), the % maximum possible antinociceptive effect at 10 mg/kg worked out at 82%. For the same compound, in data set [4], the inhibition at 1 µM came to 94%.
With `CN(C)C(c1ccccc1)C1CCC(OCc2ccc(F)cc2)CC1` (centres unmarked) [compound 145, 4-(4-fluorobenzyloxy)cyclohexyl)-N,N-dimethyl(phenyl)methanamine hydrochloride], the Ki in data set [1] amounted to 290 nM; in data set [4], 310 nM. Also, the inhibition at 10 µM was determined as 83% in data set [1] and 84% in data set [2] (setting [5]). Besides, the inhibition at 1 µM in data set [4] (setting [6]) amounted to 73%.
For `CN(C)C(c1ccccc1)C1CCC(O)(Cc2ccc(F)cc2)CC1` (centres unmarked) [compound 148, 4-((dimethylamino)(phenyl)methyl)-1-(4-fluorobenzyl)cyclohexanol hydrochloride], in data set [1], affinity was put at a Ki of 370 nM and the inhibition at 10 µM amounted to 90%. Moreover, the inhibition at 10 µM in data set [2] (setting [5]) came to 97%. For the same compound, in data set [3] (read-out: Activity % MPE), the % maximum possible antinociceptive effect at 10 mg/kg turned out to be 40%. In data set [4] (setting [6]), the inhibition at 1 µM worked out at 91%.
On to `COc1ccc(OC)c(C2(O)CCC(C(c3ccccc3)N(C)C)CC2)c1` (centres unmarked) [compound 149, 1-(2,5-Dimethoxyphenyl)-4-((dimethylamino)(phenyl)methyl)cyclohexanol hydrochloride], for which the inhibition at 10 µM was determined as 85% in data set [1] and 75% in data set [2] (setting [5]). Besides, the inhibition at 1 µM in data set [4] (setting [6]) is 82%.
